Test results: publication PMC9186491, “Novel Small Molecule Tyrosine Kinase 2 Pseudokinase Ligands Block Cytokine-Induced TYK2-Mediated Signaling Pathways” (Frontiers in Immunology, 2022)
In brackets after ≈: the same amount, converted by molar mass. Where two headings read alike, the source gives them in different places.

Key:
[1] = test system: IFNα-induced TYK2/phosphoSTAT1 (Tyr701) in Kit225 T cells; assay: Kit225 T cell assay for IFNα-induced TYK2/phosphoSTAT1 activity; type: cell-based, human; settings: Homo sapiens, KIT225, read-out: IC50 IFNα-induced-STAT1 Phosphorylation
Experimental: (§1) The cells were treated with serially diluted compounds for 1 hour and stimulated with 80 ng/mL human recombinant IFNα (R&D Systems) for 15 minutes. The treated cells were then lysed and cellular phosphorylated-STAT1 (Tyr701) levels were measured by AlphaLISA (PerkinElmer, Cat#ALSU-PST1) according to the manufacturer’s instructions.

[2] = test system: IL23-induced TYK2/phosphoSTAT3 (Tyr705) in Kit225 T cells; assay: Kit225 T cell assay for IL23-induced TYK2/phosphoSTAT3 activity; type: cell-based, human; settings: Homo sapiens, KIT225, read-out: IC50 IL23-induced-STAT3 Phosphorylation
Experimental: as §1, with “100” for “80”, “IL23” for “IFNα”, “20” for “15”, “phosphorylated-STAT3 (Tyr705)” for “phosphorylated-STAT1 (Tyr701)”, “Cat# ALSU-PST3)” for “Cat#ALSU-PST1)”

[3] = test system: IFNα-induced CXCL10 production in human whole blood; assay: IFNα-induced CXCL10 production in human whole blood; type: cell-based
Experimental: Human whole blood [drawn with Ethylenediaminetetraacetic acid (EDTA) as anti-coagulant] was obtained from Zen-Bio Inc. (Durham, NC). […] The plasma was collected for detection of C-X-C motif chemokine 10 (CXCL10, IP10) secretion. CXCL10 was measured by Human CXCL10/IP-10 AlphaLISA Kit (PerkinElmer, #AL259 C/F) according to the manufacturer’s instructions.

[4] = target: T1, TYK2 JH2 pseudokinase domain (Homo sapiens, UniProt P29597); assay: KdELECT competition binding assay, TYK2 JH2; settings: isolated TYK2 JH2 domain
T1 construct: purchased Eurofins DiscoverX Corporation (contract assay)
T1 sequence (P29597 589-875 limits assumed): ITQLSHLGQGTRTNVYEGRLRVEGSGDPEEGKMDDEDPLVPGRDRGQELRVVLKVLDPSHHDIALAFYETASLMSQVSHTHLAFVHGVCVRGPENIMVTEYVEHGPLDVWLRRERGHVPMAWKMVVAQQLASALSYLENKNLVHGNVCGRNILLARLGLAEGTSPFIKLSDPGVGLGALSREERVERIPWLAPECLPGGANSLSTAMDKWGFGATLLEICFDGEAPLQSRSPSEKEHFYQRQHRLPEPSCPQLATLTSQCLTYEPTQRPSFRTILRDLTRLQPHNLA
Experimental: (§2) The KdELECT competition assays were performed to test the binding affinity of compounds to the JH1 kinase region or JH2 pseudokinase region in TYK2 or JAK by ligand competition with JH1 or JH2 protein segments. The assay was carried out at Eurofins DiscoverX Corporation following the established standard protocol (DiscoverX, San Diego, CA). In this assay, compounds that bind to the kinase or pseudokinase protein regions prevent the protein binding to the immobilized ligand and reduce the amount of kinase matter captured on the solid surface. […] Dissociation constants (Kds) for test compound-kinase interactions are calculated by measuring the amount of kinase captured on the solid support as a function of the test compound concentration. […] The ligated beads were blocked with excess biotin and washed with blocking buffer to remove unbound ligand and to reduce nonspecific binding. […] All reactions were performed in polypropylene 384-well plates with a final volume of 20 μL. […] The beads were then re-suspended in the elution buffer and incubated at room temperature with shaking for 30 minutes. The kinase concentration in the eluant was measured by qPCR. Two replicates were performed and averaged to obtain the Kd measurement.

panel of 98 kinases = assay: Kinome screening panel (DiscoverX scanEdge); type: binding; settings: 1 µM; 91 non-mutant kinases
Experimental: For compound selectivity across a multi-kinase panel, compound binding affinity to each kinase or pseudokinase protein region was assessed using the DiscoverX scanEdge screening. Compounds were screened at a concentration of 1,000 nM in competition binding assays at Eurofins DiscoverX Corporation following the established standard protocol (DiscoverX, San Diego, CA), as described previously in the KdELECT competition binding assay. Competition with test compounds for binding to resin conjugated affinity ligand was employed to determine the “hits”, which are identified by measuring the amount of kinase captured in test versus control samples by using a quantitative PCR method that detects the associated DNA label. This measurement assesses compound selectivity against a panel of 98 kinases including kinases from the protein kinase A, G, and C family group (AGC), Ca^2+/calmodulin-dependent protein kinase class of enzymes (CAMK), group of cyclin-dependent kinase (CDK), mitogen-activated protein kinase (MAPK), glycogen synthase kinase (GSK) and CDC-like kinase (CLK) (CMGC), Casein kinase 1 (CK1), group of Ste 7, Ste 11 and Ste 20 kinases (STE), Tyrosine Kinases (TK), Tyrosine Kinase-Like group (TKL), lipid, and atypical kinase families, and other mutant forms.

TYK2 JH1 kinase domain = target: T2, TYK2 JH1 kinase domain (Homo sapiens, UniProt P29597); assay: KdELECT competition binding assay, TYK2 JH1; settings: isolated TYK2 JH1 domain
T2 construct: purchased Eurofins DiscoverX Corporation (contract assay)
T2 sequence (P29597 897-1176 limits assumed): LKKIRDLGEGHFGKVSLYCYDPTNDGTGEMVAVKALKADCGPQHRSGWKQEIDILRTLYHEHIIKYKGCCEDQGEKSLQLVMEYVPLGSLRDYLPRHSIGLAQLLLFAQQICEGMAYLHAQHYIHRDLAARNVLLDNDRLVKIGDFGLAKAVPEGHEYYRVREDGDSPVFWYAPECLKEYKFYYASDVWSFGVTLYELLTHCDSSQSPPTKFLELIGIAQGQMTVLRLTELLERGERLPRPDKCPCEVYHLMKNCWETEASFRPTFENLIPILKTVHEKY
Experimental: as §2

LM T1/2, H = type: in vitro ADME; settings: human, liver microsomes
LM T1/2, R = type: in vitro ADME; settings: rat, liver microsomes
LM T1/2, M = type: in vitro ADME; settings: mouse, liver microsomes
LM T1/2, D = type: in vitro ADME; settings: dog, liver microsomes
LM T1/2, Mk = type: in vitro ADME; settings: monkey, liver microsomes
Solubility (PBS/Fas/Fes) = type: physicochemical
CYP450 1A2 = target: T3, CYP450 1A2 (Homo sapiens, UniProt P05177); assay: CYP450 inhibition, 1A2; type: in vitro ADME
T3 sequence (P05177 1-516): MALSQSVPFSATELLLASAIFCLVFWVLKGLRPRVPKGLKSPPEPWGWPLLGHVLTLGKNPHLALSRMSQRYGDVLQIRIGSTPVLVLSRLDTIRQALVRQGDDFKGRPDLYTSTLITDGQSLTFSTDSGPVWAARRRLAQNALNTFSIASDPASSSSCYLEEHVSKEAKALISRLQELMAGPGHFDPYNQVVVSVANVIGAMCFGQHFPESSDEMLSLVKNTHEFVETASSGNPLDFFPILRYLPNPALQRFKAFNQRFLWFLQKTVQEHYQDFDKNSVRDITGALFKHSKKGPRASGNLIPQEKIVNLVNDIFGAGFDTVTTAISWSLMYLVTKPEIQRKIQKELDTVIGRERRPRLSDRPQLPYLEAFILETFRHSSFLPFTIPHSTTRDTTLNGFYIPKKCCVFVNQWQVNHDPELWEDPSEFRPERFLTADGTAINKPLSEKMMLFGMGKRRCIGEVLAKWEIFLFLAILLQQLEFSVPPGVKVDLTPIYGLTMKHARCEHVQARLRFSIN

CYP450 2C9 = CYP450 2C9 (Homo sapiens, UniProt P11712); assay: CYP450 inhibition, 2C9; type: in vitro ADME
Sequence of CYP450 2C9 (P11712 whole entry): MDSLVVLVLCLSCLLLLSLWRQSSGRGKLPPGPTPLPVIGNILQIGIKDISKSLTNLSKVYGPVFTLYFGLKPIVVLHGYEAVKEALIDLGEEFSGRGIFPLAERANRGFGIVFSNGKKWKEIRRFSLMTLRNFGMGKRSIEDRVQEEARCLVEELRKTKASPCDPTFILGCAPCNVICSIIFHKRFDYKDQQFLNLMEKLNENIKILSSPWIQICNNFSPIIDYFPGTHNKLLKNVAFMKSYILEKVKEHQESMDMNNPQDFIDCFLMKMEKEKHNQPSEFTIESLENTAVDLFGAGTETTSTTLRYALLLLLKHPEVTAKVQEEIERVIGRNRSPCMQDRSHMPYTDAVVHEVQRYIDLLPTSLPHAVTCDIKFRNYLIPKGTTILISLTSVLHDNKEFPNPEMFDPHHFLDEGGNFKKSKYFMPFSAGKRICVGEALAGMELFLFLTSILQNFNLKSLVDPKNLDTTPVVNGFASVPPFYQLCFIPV

CYP450 2D6 = CYP450 2D6 (Homo sapiens, UniProt P10635); assay: CYP450 inhibition, 2D6; type: in vitro ADME
Sequence of CYP450 2D6 (P10635 whole entry): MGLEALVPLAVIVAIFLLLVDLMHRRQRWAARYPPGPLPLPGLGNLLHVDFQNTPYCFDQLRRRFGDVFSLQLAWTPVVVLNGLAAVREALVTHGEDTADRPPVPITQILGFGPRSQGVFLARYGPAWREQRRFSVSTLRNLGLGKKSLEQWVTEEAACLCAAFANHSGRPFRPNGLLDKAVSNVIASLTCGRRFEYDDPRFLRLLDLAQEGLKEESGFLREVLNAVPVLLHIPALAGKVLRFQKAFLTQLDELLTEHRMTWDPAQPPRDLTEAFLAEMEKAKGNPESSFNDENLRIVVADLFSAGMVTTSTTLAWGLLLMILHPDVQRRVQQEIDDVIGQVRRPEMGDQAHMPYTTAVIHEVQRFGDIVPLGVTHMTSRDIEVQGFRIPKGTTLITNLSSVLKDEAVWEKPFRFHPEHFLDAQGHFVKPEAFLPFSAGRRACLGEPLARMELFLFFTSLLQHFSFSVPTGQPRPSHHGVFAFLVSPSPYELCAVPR

CYP450 3A4 = CYP450 3A4 (Homo sapiens, UniProt P08684); assay: CYP450 inhibition, 3A4; type: in vitro ADME; settings: 3A4(m); read-out: CYP450 3A4(m)
Sequence of CYP450 3A4 (P08684 whole entry): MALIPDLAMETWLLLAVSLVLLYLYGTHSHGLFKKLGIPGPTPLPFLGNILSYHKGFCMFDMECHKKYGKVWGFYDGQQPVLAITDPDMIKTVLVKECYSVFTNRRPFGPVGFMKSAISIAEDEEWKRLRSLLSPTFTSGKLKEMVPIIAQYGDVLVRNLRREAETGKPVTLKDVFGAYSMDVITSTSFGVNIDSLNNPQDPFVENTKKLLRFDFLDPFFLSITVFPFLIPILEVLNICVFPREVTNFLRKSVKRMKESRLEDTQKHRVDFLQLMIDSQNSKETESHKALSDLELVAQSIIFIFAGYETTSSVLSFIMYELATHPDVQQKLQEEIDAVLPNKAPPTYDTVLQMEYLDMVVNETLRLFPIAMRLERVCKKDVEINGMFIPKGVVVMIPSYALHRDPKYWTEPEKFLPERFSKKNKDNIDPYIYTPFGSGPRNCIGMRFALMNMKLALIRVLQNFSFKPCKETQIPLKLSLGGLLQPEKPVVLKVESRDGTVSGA

CYP450 2C19 = CYP450 2C19 (Homo sapiens, UniProt P33261); assay: CYP450 inhibition, 2C19; type: in vitro ADME
Sequence of CYP450 2C19 (P33261 whole entry): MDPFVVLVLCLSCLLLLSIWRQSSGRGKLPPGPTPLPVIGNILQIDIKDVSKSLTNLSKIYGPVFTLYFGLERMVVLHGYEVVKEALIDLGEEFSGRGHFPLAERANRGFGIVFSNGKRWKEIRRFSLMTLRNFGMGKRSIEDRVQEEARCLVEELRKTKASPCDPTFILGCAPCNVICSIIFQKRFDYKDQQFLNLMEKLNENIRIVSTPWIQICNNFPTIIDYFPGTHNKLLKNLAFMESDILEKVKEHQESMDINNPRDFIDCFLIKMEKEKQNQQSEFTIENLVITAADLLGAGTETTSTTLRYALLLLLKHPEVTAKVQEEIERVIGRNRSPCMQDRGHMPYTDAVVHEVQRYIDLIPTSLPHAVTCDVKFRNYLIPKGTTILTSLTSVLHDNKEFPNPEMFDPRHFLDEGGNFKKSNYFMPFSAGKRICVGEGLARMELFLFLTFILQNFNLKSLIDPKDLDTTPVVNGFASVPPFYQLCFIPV

GSH = type: in vitro ADME
[5] = Homo sapiens, read-out: IFNa-induced-CXCL10 Production in Human Whole Blood IC50, Average
[6] = Homo sapiens, read-out: IFNa-induced-CXCL10 Production in Human Whole Blood IC50, Donor 1
[7] = Homo sapiens, read-out: IFNa-induced-CXCL10 Production in Human Whole Blood IC50, Donor 2
[8] = Homo sapiens, read-out: IFNa-induced-CXCL10 Production in Human Whole Blood IC50, Donor 3

For `CC[C@@H]1CN(C(=O)NCC(F)(F)F)C[C@@H]1c1cnc2cnc3[nH]ccc3n12` [Upadacitinib], the IC50 [1] was 7 nM, the IC50 [2] was 22 nM and the IC50 [3, 5] was 120 nM. It also gave an IC50 [3, 6] of 130 nM, an IC50 [3, 7] of 110 nM and an IC50 [3, 8] of 130 nM.
For `CNC(=O)c1cnc(Nc2ccc(N3CCC3)cn2)cc1Nc1ccccc1S(C)(=O)=O` [SHR1274], the Kd [4] was 0.053 nM, the “No. of Hits S (1)” value (panel of 98 kinases) was 1 and the “No. of Hits S (10)” value (panel of 98 kinases) was 1. For the same compound, the “No. of Hits S (35)” value (panel of 98 kinases) was 2.
In the case of `CNC(=O)c1nnc(NC(=O)C2CC2)c2[nH]c(-c3ccccc3OC)cc12` [SHR2178], the Kd [4] is reported as 0.34 nM, the Kd (TYK2 JH1 kinase domain) is reported as over 20000 nM and the half-life (LM T1/2, H) is reported as 34 min. It also gave a half-life (LM T1/2, R) of 24 min, a half-life (LM T1/2, M) of 55 min and a half-life (LM T1/2, D) of 40 min. The half-life (LM T1/2, Mk) was 99 min, the solubility (Solubility (PBS/Fas/Fes); FaSSIF, read-out: Solubility, Fas) was 1.7 µM (≈ 0.621 µg/mL) and the solubility (Solubility (PBS/Fas/Fes); FeSSIF (Fes [sic]), fessif, read-out: Solubility, Fes) was 3.5 µM (≈ 1.28 µg/mL). The solubility (Solubility (PBS/Fas/Fes); PBS, aqueous buffer, read-out: Solubility, PBS) was 0.1 µM (≈ 0.0365 µg/mL), the IC50 (CYP450 1A2) was 4000 nM and the IC50 (CYP450 2C9) was 30000 nM. The IC50 (CYP450 2D6) was 30000 nM, the IC50 (CYP450 3A4) was 30000 nM and the IC50 (CYP450 2C19) was 30000 nM. The GSH (GSH) was “negative”.
Compound `N#CC[C@H](C1CCCC1)n1cc(-c2ncnc3[nH]ccc23)cn1` [Ruxolitinib] has an IC50 [1] of 12 nM, an IC50 [2] of 3 nM and an IC50 [3, 5] of 1900 nM. It also gave an IC50 [3, 6] of 2100 nM, an IC50 [3, 7] of 2800 nM and an IC50 [3, 8] of 740 nM.
`[2H]C([2H])([2H])NC(=O)c1nnc(NC(=O)C2CC2)cc1Nc1cccc(-c2nc3c(s2)CN(S(C)(=N)=O)C3)c1OC` (stereo not drawn) [SHR3110] showed an IC50 [1] of 16 nM, an IC50 [2] of 24 nM and an IC50 [3, 5] of 570 nM. The IC50 [3, 6] was 480 nM, the IC50 [3, 7] was 710 nM and the IC50 [3, 8] was 520 nM.
With `Cn1cc(-c2cn3nccc3c(-c3cnn([C@]4(CC#N)C[C@@H](C#N)C4)c3)n2)cn1` [Ropsacitinib] the IC50 ([3]; human whole blood, IFNα 16 hours; read-out: TYK2-associated IFNα-induced-CXCL10 Production in Human Whole Blood: IC50) was 2000 ± 960 nM.
`O=C(Nc1nc2cccc(-c3ccc(CN4CCS(=O)(=O)CC4)cc3)n2n1)C1CC1` [Filgotinib] gave an IC50 [1] of 250 nM, an IC50 [2] of 3800 nM and an IC50 ([3]; Homo sapiens; average of Donor 1-3; read-out: IFNa-induced-CXCL10 Production in Human Whole Blood IC50, Average) of 730 nM. For the same compound, the IC50 ([3]; Homo sapiens; read-out: IFNa-induced-CXCL10 Production in Human Whole Blood IC50, Donor 1) was 770 nM, the IC50 ([3]; Homo sapiens; read-out: IFNa-induced-CXCL10 Production in Human Whole Blood IC50, Donor 2) was 790 nM and the IC50 ([3]; Homo sapiens; read-out: IFNa-induced-CXCL10 Production in Human Whole Blood IC50, Donor 3) was 630 nM.
